# How the values were obtained:
# Format in all cases: biochemical
# [1] = target: T1, N-terminal GST-tagged recombinant human Flt3, residues 564-end (Homo sapiens, UniProt P36888); experiment: Flt3 kinase inhibition assay (33P-ATP filter assay); details: 40 minutes at room temperature
# T1 construct: recombinant human Flt3, residues 564-end; GST (N); purchased Upstate USA Inc, 706 Forest Street, Charlottesville, Va
# T1 sequence (P36888 564-993 limits assumed): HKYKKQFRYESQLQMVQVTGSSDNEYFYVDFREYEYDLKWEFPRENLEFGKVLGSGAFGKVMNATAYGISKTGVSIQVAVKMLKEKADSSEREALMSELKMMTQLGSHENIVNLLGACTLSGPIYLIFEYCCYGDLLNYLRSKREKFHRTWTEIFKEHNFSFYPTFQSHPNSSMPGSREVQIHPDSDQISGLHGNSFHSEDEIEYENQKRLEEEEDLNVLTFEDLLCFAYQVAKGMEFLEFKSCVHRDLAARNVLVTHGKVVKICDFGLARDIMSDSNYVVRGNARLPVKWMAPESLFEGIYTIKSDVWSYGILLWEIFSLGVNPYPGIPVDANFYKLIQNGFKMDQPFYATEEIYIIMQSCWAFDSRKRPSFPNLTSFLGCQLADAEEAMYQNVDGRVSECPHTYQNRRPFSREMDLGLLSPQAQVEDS
# Method in brief: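 Serial compound dilutions incubated 40 min at room temperature with 5-10 mU Flt3 kinase, 50 μM peptide substrate and [γ-33P]ATP/10 mM magnesium acetate, pH 7.0. Phosphoric acid stop, filter capture and scintillation counting; activity compared with uninhibited reactions.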
# [2] = target: T2, Aurora B kinase (Homo sapiens, UniProt Q96GD4); experiment: Aurora B (Aurora 1) inhibition assay; details: ATP 50 μM, 16 h
# T2 construct: purchased BPS Biosciences, San Diego, Calif
# T2 sequence (Q96GD4 whole entry): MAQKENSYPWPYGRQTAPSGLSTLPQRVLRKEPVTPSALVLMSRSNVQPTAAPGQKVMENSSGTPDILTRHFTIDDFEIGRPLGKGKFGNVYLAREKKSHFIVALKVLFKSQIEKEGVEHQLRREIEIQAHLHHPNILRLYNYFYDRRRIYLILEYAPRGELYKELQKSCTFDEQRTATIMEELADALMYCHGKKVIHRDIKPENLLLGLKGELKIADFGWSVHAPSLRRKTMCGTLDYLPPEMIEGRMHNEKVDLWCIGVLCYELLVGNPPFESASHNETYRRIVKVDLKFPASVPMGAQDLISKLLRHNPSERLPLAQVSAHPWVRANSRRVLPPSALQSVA
# Description: Compounds were tested for their potency against recombinant Aurora A (Upstate, Lake Placid, N.Y.) using the PanVera Z′-Lyte kinase assay kit—Ser/Thr 1 peptide (Invitrogen, Carlsbad, Calif.). Assays were carried out in kinase assay buffer (50 mM HEPES, pH 7.5, 10 mM MgCl2, 5 mM EGTA, 0.05% Brij-35, 2 mM DTT). Test compounds were initially dissolved in DMSO at 100× the highest tested concentration, then serially diluted to 4× test concentrations in kinase assay buffer. Next, Aurora A (final concentration 200-500 ng/mL), Z′-Lyte Ser/Thr 1 peptide (final concentration 2 μM) and ATP (final concentration 10 μM) were added according to the manufacturer's instructions. Assays were carried out in half-area 96-well white polystyrene assay plates (Corning, Corning, N.Y.) in a final volume of 20 μl. The reaction was allowed to proceed for 1 h at room temperature in the dark, at which point the development reagent and stop reagent were added according to the manufacturer's instructions. Coumarin (Ex. 400 nm, Em. 465 nm) and fluorescein (Ex. 400 nm, Em. 565 nm) fluorescence values were measured on a SpectraFluor Plus plate reader (Tecan, Durham, N.C.). The emission ratio (coumarin/fluorescein) was determined and used to calculate the percent phosphorylation for each well. Wells containing substrate but no kinase and wells containing a phosphopeptide control were used to set 0% and 100% phosphorylation values, respectively. Typically 20-40% of the substrate was phosphorylated in wells without inhibitor. Dose-response curves of relative Aurora A activity vs. inhibitor concentration were plotted with Grafit (Erithacus Software, Horley, Surrey, UK).
# Assays for Aurora B kinase inhibition were carried out similarly to those for Aurora A kinase (see above) with the following modifications. Aurora B kinase (BPS Biosciences, San Diego, Calif.) was used as the enzyme, at a concentration was 2.5 μg/mL. The ATP concentration was 50 μM, and the kinase reaction was allowed to proceed for 16 h. Sodium orthovanadate (20 μM) was added to the buffer to inhibit contaminating phosphatases.
# [3] = target: T3, N-terminal His6-tagged recombinant human KDR, residues 790-end (Homo sapiens, UniProt P35968); experiment: KDR kinase inhibition assay (33P-ATP filter assay)
# T3 construct: recombinant human KDR, residues 790-end; His6 (N); purchased Upstate USA Inc, 706 Forest Street, Charlottesville, Va
# T3 sequence (P35968 790-1356 limits assumed): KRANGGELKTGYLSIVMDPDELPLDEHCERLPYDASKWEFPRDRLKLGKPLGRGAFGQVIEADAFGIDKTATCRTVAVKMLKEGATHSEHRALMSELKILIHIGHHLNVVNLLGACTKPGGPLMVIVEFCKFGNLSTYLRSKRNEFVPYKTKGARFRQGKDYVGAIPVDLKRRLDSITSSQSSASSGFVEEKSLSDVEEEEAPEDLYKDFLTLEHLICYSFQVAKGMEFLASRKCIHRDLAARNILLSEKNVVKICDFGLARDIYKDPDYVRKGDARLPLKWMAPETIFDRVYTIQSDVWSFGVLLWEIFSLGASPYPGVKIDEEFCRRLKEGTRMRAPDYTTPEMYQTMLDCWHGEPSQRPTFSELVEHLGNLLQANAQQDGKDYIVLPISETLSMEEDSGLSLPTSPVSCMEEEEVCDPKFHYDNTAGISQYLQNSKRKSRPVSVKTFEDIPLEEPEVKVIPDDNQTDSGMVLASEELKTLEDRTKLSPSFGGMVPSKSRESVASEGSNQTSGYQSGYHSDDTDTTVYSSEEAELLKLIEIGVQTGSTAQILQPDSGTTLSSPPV
# Method in brief: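 His6-tagged human KDR (residues 790-end, 5-10 mU) with 0.33 mg/mL myelin basic protein in 8 mM MOPS pH 7.0, 0.2 mM EDTA, 10 mM magnesium acetate and [γ-33P]ATP; 40 min at room temperature. Stopped with phosphoric acid, filter-bound 33P counted; inhibition relative to no-inhibitor controls.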
IC50 [1] [nM],IC50 [2] [nM],IC50 ([3]; 40 minutes at room temperature) [nM],IC50 ([3]; group with IC50 greater than 100 nM) [nM],SMILES
≤ 100,≤ 1000,≤ 100,–,"Cc1cc(Nc2cc(NC3CCOCC3)nc(-c3cccc(N(C)C)c3)n2)n[nH]1 [Compound 74, 2-(3-(dimethylamino)phenyl)-N^4-(5-methyl-1H-pyrazol-3-yl)-N^6-(tetrahydro-2H-pyran-4-yl)pyrimidine-4,6-diamine]"
≤ 100,≤ 1000,≤ 100,–,"CCOc1cccc(-c2nc(Nc3cc(C)[nH]n3)cc(N3CCN(C)CC3)n2)c1 [Example 190, 2-(3-ethoxyphenyl)-N-(5-methyl-1H-pyrazol-3-yl)-6-(4-methylpiperazin-1-yl)pyrimidin-4-amine]"
≤ 100,≤ 1000,≤ 100,–,"Cc1cc(Nc2cc(N3CCN(C)CC3)nc(-c3cccc(C#N)c3)n2)n[nH]1 [Example 163, 3-(4-(5-methyl-1H-pyrazol-3-ylamino)-6-(4-methylpiperazin-1-yl)pyrimidin-2-yl)benzonitrile]"
≤ 100,≤ 1000,–,≤ 1000,"Cc1cc(Nc2cc(NC3CCOCC3)nc(-c3ccc4c(c3)OCCO4)n2)n[nH]1 [Example 130, 2-(2,3-dihydrobenzo[b][1,4]dioxin-6-yl)-N^4-(5-methyl-1H-pyrazol-3-yl)-N^6-(tetrahydro-2H-pyran-4-yl)pyrimidine-4,6-diamine]"
≤ 100,≤ 1000,≤ 100,–,"Cc1cc(Nc2cc(NC3CCOCC3)nc(-c3cc4ccccc4o3)n2)n[nH]1 [Compound 15, 2-(benzofuran-2-yl)-N^4-(tetrahydro-2H-pyran-4-yl)-N^6-(5-methyl-1H-pyrazol-3-yl)-pyrimidine-4,6-diamine]"
≤ 100,≤ 1000,≤ 100,–,"Cc1cc(Nc2cc(N3CCN(C)CC3)nc(-c3ccccc3)n2)n[nH]1 [Compound 8, N-(5-methyl-1H-pyrazol-3-yl)-6-(4-methylpiperazin-1-yl)-2-phenyl pyrimidin-4-amine]"
≤ 100,≤ 1000,≤ 100,–,"Cc1cc(Nc2cc(N3CCN(C)CC3)nc(-c3ccc4c(c3)OCCO4)n2)n[nH]1 [Example 137, 2-(2,3-dihydrobenzo[b][1,4]dioxin-6-yl)-N-(5-methyl-1H-pyrazol-3-yl)-6-(4-methylpiperazin-1-yl)pyrimidin-4-amine]"
≤ 100,≤ 1000,–,–,"Cc1cc(Nc2cc(N3CCN(C)CC3)nc(-c3cc(F)cc(F)c3)n2)n[nH]1 [Example 170, 2-(3,5-difluorophenyl)-N-(5-methyl-1H-pyrazol-3-yl)-6-(4-methylpiperazin-1-yl)pyrimidin-4-amine]"
≤ 100,≤ 1000,≤ 100,–,"Cc1cc(Nc2cc(N3CCN(C)CC3)nc(-c3cccc(Cl)c3)n2)n[nH]1 [Compound 36, 2-(3-chlorophenyl)-N-(5-methyl-1H-pyrazol-3-yl)-6-(4-methylpiperazin-1-yl)pyrimidin-4-amine]"
≤ 100,≤ 1000,≤ 100,–,"Cc1cc(Nc2cc(NC3CCOCC3)nc(-c3cccc(F)c3)n2)n[nH]1 [Compound 20, 2-(3-fluorophenyl)-N^4-(5-methyl-1H-pyrazol-3-yl)-N^6-(tetrahydro-2H-pyran-4-yl)pyrimidine-4,6-diamine]"
≤ 100,≤ 1000,≤ 100,–,"Cc1cc(Nc2cc(N3CCN(C)CC3)nc(-c3cccc(F)c3)n2)n[nH]1 [Compound 33, 2-(3-fluorophenyl)-N-(5-methyl-1H-pyrazol-3-yl)-6-(4-methylpiperazin-1-yl)pyrimidin-4-amine]"
≤ 100,≤ 1000,≤ 100,–,"Cc1cc(Nc2cc(N3CCN(C)CC3)nc(-c3cccc([N+](=O)[O-])c3)n2)n[nH]1 [Example 162, N-(5-methyl-1H-pyrazol-3-yl)-6-(4-methylpiperazin-1-yl)-2-(3-nitrophenyl)pyrimidin-4-amine]"
≤ 100,≤ 1000,≤ 100,–,"Cc1cc(Nc2cc(N3CCN(C)CC3)nc(-c3cccc(-c4ccccc4)c3)n2)n[nH]1 [Compound 16, 2-(biphenyl-3-yl)-N-(5-methyl-1H-pyrazol-3-yl)-6-(4-methylpiperazin-1-yl)pyrimidin-4-amine]"
≤ 100,≤ 1000,≤ 100,–,"COC(=O)c1cccc(-c2nc(Nc3cc(C)[nH]n3)cc(N3CCN(C)CC3)n2)c1 [Example 166, methyl 3-(4-(5-methyl-1H-pyrazol-3-ylamino)-6-(4-methylpiperazin-1-yl)pyrimidin-2-yl)benzoate]"
≤ 100,≤ 1000,≤ 100,–,"CC(=O)c1cccc(-c2nc(Nc3cc(C)[nH]n3)cc(N3CCN(C)CC3)n2)c1 [Example 165, 1-(3-(4-(5-methyl-1H-pyrazol-3-ylamino)-6-(4-methylpiperazin-1-yl)pyrimidin-2-yl)phenyl)ethanone]"
≤ 100,≤ 1000,≤ 100,–,"COc1cccc(-c2nc(Nc3cc(C)[nH]n3)cc(N3CCN(C)CC3)n2)c1 [Compound 42, 2-(3-methoxyphenyl)-N-(5-methyl-1H-pyrazol-3-yl)-6-(4-methylpiperazin-1-yl)pyrimidin-4-amine]"
≤ 100,≤ 1000,≤ 100,–,"Cc1cc(Nc2cc(N3CCN(C)CC3)nc(-c3ccc4c(c3)OCO4)n2)n[nH]1 [Example 139, 2-(benzo[d][1,3]dioxol-5-yl)-N-(5-methyl-1H-pyrazol-3-yl)-6-(4-methylpiperazin-1-yl)pyrimidin-4-amine]"
≤ 100,≤ 1000,≤ 100,–,"COc1cc(OC)cc(-c2nc(Nc3cc(C)[nH]n3)cc(N3CCN(C)CC3)n2)c1 [Example 191, 2-(3,5-dimethoxyphenyl)-N-(5-methyl-1H-pyrazol-3-yl)-6-(4-methylpiperazin-1-yl)pyrimidin-4-amine]"
≤ 100,–,≤ 100,–,"Cc1cc(Nc2cc(N3CCN(C)CC3)nc(-c3ccccc3Cl)n2)n[nH]1 [Compound 37, 2-(2-chlorophenyl)-N-(5-methyl-1H-pyrazol-3-yl)-6-(4-methylpiperazin-1-yl)pyrimidin-4-amine]"
≤ 100,–,≤ 100,–,"Cc1cc(Nc2cc(NCCN3CCN(C)CC3)nc(-c3ccccc3)n2)n[nH]1 [Compound 13, N^4-(5-methyl-1H-pyrazol-3-yl)-N^6-(2-(4-methylpiperazin-1-yl)ethyl)-2-phenylpyrimidine-4,6-diamine]"
≤ 100,–,≤ 100,–,"Cc1cccc(-c2nc(Nc3cc(C)[nH]n3)cc(N3CCN(C)CC3)n2)c1 [Compound 39, N-(5-methyl-1H-pyrazol-3-yl)-6-(4-methylpiperazin-1-yl)-2-m-tolylpyrimidin-4-amine]"

# — patent publication US20090029992A1, “SUBSTITUTED PYRAZOLE COMPOUNDS” (priority 2007, published 2009)
